# Earlier results, collected in patent US11096912B2, “Valaciclovir and celecoxib combination for functional somatic syndromes” (INNOVATIVE MED CONCEPTS, LLC, priority 2012, dated 2021).
# System: fibromyalgia patients
# Settings: valacyclovir alone; J. Rheumatology (2004) 31, 783-784
compound,measurement,value
CC(C)[C@H](N)C(=O)OCCOCn1cnc2c(=O)[nH]c(N)nc21 [valacyclovir],treatment of fibromyalgia patients,not successful
